# Bridge positions count the residues as written; N and C are the ends. Ends that are not written are not given here.
# Biological target: T1, IL-7R (Homo sapiens, UniProt P16871+P31785)
# T1 construct: constructed to express full-length human IL-7Rα in TF-1 cells; TF-1 cells, which naturally express γc, but not IL-7Rα; expressed in transfected cells
# T1 sequence (P16871 21-459): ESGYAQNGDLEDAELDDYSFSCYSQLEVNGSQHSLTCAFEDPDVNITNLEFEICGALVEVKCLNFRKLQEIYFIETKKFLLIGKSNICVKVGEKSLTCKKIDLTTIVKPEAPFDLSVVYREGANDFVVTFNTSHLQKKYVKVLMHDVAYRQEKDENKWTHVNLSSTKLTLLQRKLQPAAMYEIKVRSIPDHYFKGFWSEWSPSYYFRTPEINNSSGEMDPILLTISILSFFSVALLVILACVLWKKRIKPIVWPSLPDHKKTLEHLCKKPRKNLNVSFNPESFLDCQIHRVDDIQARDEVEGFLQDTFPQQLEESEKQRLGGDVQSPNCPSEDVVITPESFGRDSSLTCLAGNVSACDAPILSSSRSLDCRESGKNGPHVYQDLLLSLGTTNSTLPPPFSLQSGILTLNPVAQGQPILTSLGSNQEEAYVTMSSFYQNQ
# T1 sequence (P31785 23-369): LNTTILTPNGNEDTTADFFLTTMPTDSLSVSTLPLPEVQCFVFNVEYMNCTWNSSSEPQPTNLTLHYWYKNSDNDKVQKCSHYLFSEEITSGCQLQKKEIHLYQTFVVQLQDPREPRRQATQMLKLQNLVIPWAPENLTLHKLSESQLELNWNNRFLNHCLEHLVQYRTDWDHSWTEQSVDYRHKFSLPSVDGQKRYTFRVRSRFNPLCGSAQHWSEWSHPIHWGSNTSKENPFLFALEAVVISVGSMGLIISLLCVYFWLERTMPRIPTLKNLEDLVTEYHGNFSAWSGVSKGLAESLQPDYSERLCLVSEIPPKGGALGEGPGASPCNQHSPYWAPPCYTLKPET
# Test: STAT5 phosphorylation in TF1-7Rα cells
# Assay type: cell-based
# Experimental: The synthetic peptide MDK1472 was designed to bind simultaneously to IL-7Rα and γc subunits and was tested for its ability to induce phosphorylation of STAT5, the primary IL-7R signaling pathway.
# Reactions were stopped and cell lysates prepared for pSTAT5 analysis.
# Cells were deprived of growth factors by overnight incubation at 5×10^5 cells/mL in starvation medium (RPMI 1640 + 4.5 g/L glucose + 0.2% FBS + 2 mM L-glutamine + 1 mM NaPyr + 10 mM HEPES + 0.5x penicillin-streptomycin with no cytokine supplement) in T75 flasks. For assays, cells were plated in 96-well V-bottom plates at 2×10^5 cells/well. Three-fold serial dilutions in starvation medium of the test compounds or cytokine were added to the cells and incubated for 30 min at 37°C. Following incubation, cell extracts were prepared by adding a mixture of 10x Cell Lysis Buffer (Cell Signaling Technology Cat# 9803) and 100x HALT Phosphatase and Protease Inhibitor Cocktail (Thermo Fisher Cat# 78442) directly to the wells. The plates were agitated at 25°C for 5 min to prepare cell extracts for immediate use or to be stored at -80°C until assay. Detection of pSTAT5 was performed using a PathScan® Phospho-Stat5 (pTyr694) Sandwich ELISA Kit (Cell Signaling Technology Cat# 7113). Detection of pSTAT6 was performed using a PathScan® Phospho-Stat6 (pTyr641) Sandwich ELISA Kit (Cell Signaling Technology Cat# 7275). Detection of pSTAT3 was performed using a PathScan® Phospho-Stat3 (pTyr705) Sandwich ELISA Kit (Cell Signaling Technology Cat# 7300). Cell lysates were added to pre-coated ELISA wells and incubated at 4°C overnight. Primary and secondary antibody incubations and wash steps were performed according to the protocols supplied by the manufacturer. Assays were developed using TMB substrate (Surmodics Cat# TMBW-1000-01) for 5–10 min at 25°C and the reaction was stopped using STOP solution (Surmodics Cat# LSTP-1000-01).
substance,measurement,setting,value
"Ac-GWGIPWCTLDPGSLQCAWLGKHGGGGSGGVVCQDWEGVELCWQGG (disulfide 7-16, 32-41) [MDK1472]",EC50,"Fig 4A dose response, 30 min at 37°C, pSTAT5 ELISA",18 nM
same,efficacy (Emax) of STAT5 phosphorylation relative to IL-7,"TF1-7Rα cells, Fig 3",full efficacy
same,dependence of agonist activity on IL-7Rα expression,TF-1 parental (γc+) versus TF1-7Rα cells,completely dependent on IL-7Rα expression

# — publication PMC10597491 (PLOS ONE, 2023)
